Results: patent US6936270B2, “Device and method for treating conditions of a joint” (Control Delivery Systems, Inc., priority 2000, dated 2005)
Where two headings read alike, the source gives them in different places.

Columns and labels:
[1] = Fluocinolone acetonide concentration in dog synovial fluid after intraarticular implants in knee joints; format: in vivo, Canis familiaris; details: for concentration at 3 day / concentration at 7 day / concentration at 21 day / concentration at 29 day / concentration at 56 day: dog, other: bilateral intraarticular implants (knee joints)
Procedure: Devices were administered once via bilateral intraarticular implants. The day of surgical implantation was Day 1. The devices were made as follows. Fluocinolone acetonide, USP, was compressed into 1.5 mm diameter tablets using standard pharmaceutical methods. The tablets were placed into preformed cups made from silicone elastomer. Cup size was dependent on dosage form. These cups were attached to […] (PVA) suture tabs. For the 2 mg implants, the surface of the tablet not coated with silicone was attached to a suture tab with PVA solution. For the […] implant, a side of the silicone cup was attached perpendicular to the suture tab. Finally, the assemblies were dip coated with PVA. The implants were then cured at 135° C. for 5 hours and placed within the primary package. The product in the primary package was placed in a self-adhesive pouch and sterilized using gamma irradiation. Surgery was performed on both knee joints of all animals. A lateral skin incision was made to expose the fascia lata overlying the vastus lateralis cranially and the biceps fernoris caudally. The joint was exposed through an incision in the lateral intermuscular septum to expose the femur by anterior retraction of the vastus lateralis and posterior retraction of the biceps femoris. Care was taken not to disrupt the tendon of origin of the long digital extensor as it originates from the lateral femoral condyle. The joint capsule was opened, the patella luxated medially, and the joint was held in full flexion. 2 mg devices were placed in the right leg and 18 mg implants were placed in the left leg. The implants were placed within the anterior intercondyloid fossa, immediately lateral to the origin of the posterior cruciate ligament. The bone may be slightly deepened at this location with a curette to accept the implant. The implant was sutured in place to the posterior cruciate ligament. The joint capsule was closed with 3/0 PDS in a simple interrupted fashion. The retinaculum and intermuscular septum were closed with 2/0 Vicryl in a continuous pattern. The fascia lata were closed with 2/0 PDS, and the subcutaneous tissues with 3/0 PDS, both in a simple continuous pattern. The skin was closed with 3/0 Vicryl in a subcuticular pattern. After anesthesia (acepromazine, 0.2 mg/kg. IM followed by sodium pentobarbital, 22 mg/kg, IV, to effect), an attempt was made to obtain synovial fluid. Syriovial fluid samples were immediately stored at ≦−70° C. in polypropylene tubes until transferred.

[2] = Plasma concentration of fluocinolone acetonide after FA screw implant in the stifle joint of sheep; format: in vivo, Ovis aries (Sheep); details: intra-articular FA screw implants in the stifle joint, FIG. 1
Text: (§1) The objective of this study was to determine both the local and systemic pharmacokinetic profile of an intra-articular fluocinolone acetonide (FA screw) implant in the stifle joint of sheep. The animals underwent surgical implantation of the FA Screw test device in the stifle joint on Day 1. Following a recovery period, blood and synovial fluid were collected periodically for pharmacokinetic determination. Following completion of a 24 month observation period, the animals were euthanized and subjected to necropsy.
(§2) Devices were administered once via surgical implantation on Day 1.
(§3) The implant was a polymer-coated, sustained-release delivery system for Fluocinolone Acetonide (FA). The implant contained 55 mg of FA and was designed to deliver the drug for approximately 3 years. The tablet core contained approximately 55 mg of FA granulated with 10% PVA. The tablet core was positioned and adhered via an adhesive, such as a silicone adhesive, in the interchangeable head of the bone screw. The overall device geometry was that of a cancellous bone screw (i.e. the base) in which the head of the screw has been hollowed out to accept a removable cup (i.e. the payload) containing the drug tablet. In this embodiment, the screw was approximately 11/16″ in length and is no more than ¼″ at its widest point (i.e. the screw head), The payload was sized to fit into the screw and to accommodate the tablet. […]

[3] = Synovial fluid concentration of fluocinolone acetonide after FA screw implant in the stifle joint of sheep; format: in vivo, Ovis aries (Sheep); details: at three and eight weeks, FIG. 1
Text: as §1, §2, §3

Structure (SMILES): CC1(C)O[C@@H]2C[C@H]3[C@@H]4C[C@H](F)C5=CC(=O)C=C[C@]5(C)[C@@]4(F)[C@@H](O)C[C@]3(C)[C@]2(C(=O)CO)O1 [Fluocinolone Acetonide]
- Assayed Concentrations of Fluocinolone Acetonide in Dog Synovial Fluid Samples (Right Leg) ([1]; Right leg (2 mg devices), Dog 1001, Day 21): 7.27 ng/mL
- Assayed Concentrations of Fluocinolone Acetonide in Dog Synovial Fluid Samples (Right Leg) ([1]; Right leg (2 mg devices), Dog 2001, Day 7): 98.4 ng/mL
- Assayed Concentrations of Fluocinolone Acetonide in Dog Synovial Fluid Samples (Right Leg) ([1]; Right leg (2 mg devices), Dog 2002, Day 7): 47.7 ng/mL
- Assayed Concentrations of Fluocinolone Acetonide in Dog Synovial Fluid Samples (Right Leg) ([1]; Right leg (2 mg devices), Dog 2002, Day 21): 144 ng/mL
- Assayed Concentrations of Fluocinolone Acetonide in Dog Synovial Fluid Samples (Right Leg) ([1]; Right leg (2 mg devices), Dog 3001, Day 7): 171 ng/mL
- Assayed Concentrations of Fluocinolone Acetonide in Dog Synovial Fluid Samples (Right Leg) ([1]; Right leg (2 mg devices), Dog 3001, Day 21): 51.5 ng/mL
- Assayed Concentrations of Fluocinolone Acetonide in Dog Synovial Fluid Samples (Right Leg) ([1]; Right leg (2 mg devices), Dog 3002, Day 7): 8.30 ng/mL
- concentration at 3 day ([1]; synovial fluid (left knee joint), 18 mg, Left leg (18 mg implants), Dog 1001, Day 3, read-out: Assayed Concentrations of Fluocinolone Acetonide in Dog Synovial Fluid Samples (Left Leg)): 656 ng/mL
- concentration at 7 day ([1]; synovial fluid (left knee joint), 18 mg, Left leg (18 mg implants), Dog 1001, Day 7, read-out: Assayed Concentrations of Fluocinolone Acetonide in Dog Synovial Fluid Samples (Left Leg)): 290 ng/mL
- concentration at 21 day ([1]; synovial fluid (left knee joint), 18 mg, Left leg (18 mg implants), Dog 1001, Day 21, read-out: Assayed Concentrations of Fluocinolone Acetonide in Dog Synovial Fluid Samples (Left Leg)): 1070 ng/mL
- concentration at 29 day ([1]; synovial fluid (left knee joint), 18 mg, Left leg (18 mg implants), Dog 1001, Day 29, read-out: Assayed Concentrations of Fluocinolone Acetonide in Dog Synovial Fluid Samples (Left Leg)): 457 ng/mL
- concentration at 56 day ([1]; synovial fluid (left knee joint), 18 mg, Left leg (18 mg implants), Dog 1001, Day 56, read-out: Assayed Concentrations of Fluocinolone Acetonide in Dog Synovial Fluid Samples (Left Leg)): 202000 ng/mL
- concentration at 3 day ([1]; synovial fluid (left knee joint), 18 mg, Left leg (18 mg implants), Dog 1002, Day 3, read-out: Assayed Concentrations of Fluocinolone Acetonide in Dog Synovial Fluid Samples (Left Leg)): 357 ng/mL
- concentration at 7 day ([1]; synovial fluid (left knee joint), 18 mg, Left leg (18 mg implants), Dog 1002, Day 7, read-out: Assayed Concentrations of Fluocinolone Acetonide in Dog Synovial Fluid Samples (Left Leg)): 405 ng/mL
- concentration at 21 day ([1]; synovial fluid (left knee joint), 18 mg, Left leg (18 mg implants), Dog 1002, Day 21, read-out: Assayed Concentrations of Fluocinolone Acetonide in Dog Synovial Fluid Samples (Left Leg)): 373 ng/mL
- concentration at 29 day ([1]; synovial fluid (left knee joint), 18 mg, Left leg (18 mg implants), Dog 1002, Day 29, read-out: Assayed Concentrations of Fluocinolone Acetonide in Dog Synovial Fluid Samples (Left Leg)): 379 ng/mL
- concentration at 56 day ([1]; synovial fluid (left knee joint), 18 mg, Left leg (18 mg implants), Dog 1002, Day 56, read-out: Assayed Concentrations of Fluocinolone Acetonide in Dog Synovial Fluid Samples (Left Leg)): 541 ng/mL
- concentration at 3 day ([1]; synovial fluid (left knee joint), 18 mg, Left leg (18 mg implants), Dog 2001, Day 3, read-out: Assayed Concentrations of Fluocinolone Acetonide in Dog Synovial Fluid Samples (Left Leg)): 89 ng/mL
- concentration at 7 day ([1]; synovial fluid (left knee joint), 18 mg, Left leg (18 mg implants), Dog 2001, Day 7, read-out: Assayed Concentrations of Fluocinolone Acetonide in Dog Synovial Fluid Samples (Left Leg)): 194 ng/mL
- concentration at 29 day ([1]; synovial fluid (left knee joint), 18 mg, Left leg (18 mg implants), Dog 2001, Day 29, read-out: Assayed Concentrations of Fluocinolone Acetonide in Dog Synovial Fluid Samples (Left Leg)): 57.8 ng/mL
- concentration at 3 day ([1]; synovial fluid (left knee joint), 18 mg, Left leg (18 mg implants), Dog 2002, Day 3, read-out: Assayed Concentrations of Fluocinolone Acetonide in Dog Synovial Fluid Samples (Left Leg)): 193 ng/mL
- concentration at 7 day ([1]; synovial fluid (left knee joint), 18 mg, Left leg (18 mg implants), Dog 2002, Day 7, read-out: Assayed Concentrations of Fluocinolone Acetonide in Dog Synovial Fluid Samples (Left Leg)): 279 ng/mL
- concentration at 21 day ([1]; synovial fluid (left knee joint), 18 mg, Left leg (18 mg implants), Dog 2002, Day 21, read-out: Assayed Concentrations of Fluocinolone Acetonide in Dog Synovial Fluid Samples (Left Leg)): 393 ng/mL
- concentration at 29 day ([1]; synovial fluid (left knee joint), 18 mg, Left leg (18 mg implants), Dog 2002, Day 29, read-out: Assayed Concentrations of Fluocinolone Acetonide in Dog Synovial Fluid Samples (Left Leg)): 956 ng/mL
- concentration at 3 day ([1]; synovial fluid (left knee joint), 18 mg, Left leg (18 mg implants), Dog 3001, Day 3, read-out: Assayed Concentrations of Fluocinolone Acetonide in Dog Synovial Fluid Samples (Left Leg)): 788 ng/mL
- concentration at 7 day ([1]; synovial fluid (left knee joint), 18 mg, Left leg (18 mg implants), Dog 3001, Day 7, read-out: Assayed Concentrations of Fluocinolone Acetonide in Dog Synovial Fluid Samples (Left Leg)): 35300 ng/mL
- concentration at 21 day ([1]; synovial fluid (left knee joint), 18 mg, Left leg (18 mg implants), Dog 3001, Day 21, read-out: Assayed Concentrations of Fluocinolone Acetonide in Dog Synovial Fluid Samples (Left Leg)): 5180 ng/mL
- concentration at 56 day ([1]; synovial fluid (left knee joint), 18 mg, Left leg (18 mg implants), Dog 3001, Day 56, read-out: Assayed Concentrations of Fluocinolone Acetonide in Dog Synovial Fluid Samples (Left Leg)): 36.9 ng/mL
- concentration at 3 day ([1]; synovial fluid (left knee joint), 18 mg, Left leg (18 mg implants), Dog 3002, Day 3, read-out: Assayed Concentrations of Fluocinolone Acetonide in Dog Synovial Fluid Samples (Left Leg)): 207 ng/mL
- concentration at 7 day ([1]; synovial fluid (left knee joint), 18 mg, Left leg (18 mg implants), Dog 3002, Day 7, read-out: Assayed Concentrations of Fluocinolone Acetonide in Dog Synovial Fluid Samples (Left Leg)): 251 ng/mL
- concentration at 21 day ([1]; synovial fluid (left knee joint), 18 mg, Left leg (18 mg implants), Dog 3002, Day 21, read-out: Assayed Concentrations of Fluocinolone Acetonide in Dog Synovial Fluid Samples (Left Leg)): 276 ng/mL
- concentration at 29 day ([1]; synovial fluid (left knee joint), 18 mg, Left leg (18 mg implants), Dog 3002, Day 29, read-out: Assayed Concentrations of Fluocinolone Acetonide in Dog Synovial Fluid Samples (Left Leg)): 210 ng/mL
- concentration at 3 day ([1]; synovial fluid (right knee joint), 2 mg, Right leg (2 mg devices), Dog 1001, Day 3, read-out: Assayed Concentrations of Fluocinolone Acetonide in Dog Synovial Fluid Samples (Right Leg)): 52 ng/mL
- concentration at 7 day ([1]; synovial fluid (right knee joint), 2 mg, Right leg (2 mg devices), Dog 1001, Day 7, read-out: Assayed Concentrations of Fluocinolone Acetonide in Dog Synovial Fluid Samples (Right Leg)): 62.4 ng/mL
- concentration at 56 day ([1]; synovial fluid (right knee joint), 2 mg, Right leg (2 mg devices), Dog 1001, Day 56, read-out: Assayed Concentrations of Fluocinolone Acetonide in Dog Synovial Fluid Samples (Right Leg)): 19.3 ng/mL
- concentration at 3 day ([1]; synovial fluid (right knee joint), 2 mg, Right leg (2 mg devices), Dog 1002, Day 3, read-out: Assayed Concentrations of Fluocinolone Acetonide in Dog Synovial Fluid Samples (Right Leg)): 36.6 ng/mL
- concentration at 3 day ([1]; synovial fluid (right knee joint), 2 mg, Right leg (2 mg devices), Dog 2001, Day 3, read-out: Assayed Concentrations of Fluocinolone Acetonide in Dog Synovial Fluid Samples (Right Leg)): 600 ng/mL
- concentration at 3 day ([1]; synovial fluid (right knee joint), 2 mg, Right leg (2 mg devices), Dog 2002, Day 3, read-out: Assayed Concentrations of Fluocinolone Acetonide in Dog Synovial Fluid Samples (Right Leg)): 24.4 ng/mL
- concentration at 3 day ([1]; synovial fluid (right knee joint), 2 mg, Right leg (2 mg devices), Dog 3001, Day 3, read-out: Assayed Concentrations of Fluocinolone Acetonide in Dog Synovial Fluid Samples (Right Leg)): 57.9 ng/mL
- concentration at 29 day ([1]; synovial fluid (right knee joint), 2 mg, Right leg (2 mg devices), Dog 3001, Day 29, read-out: Assayed Concentrations of Fluocinolone Acetonide in Dog Synovial Fluid Samples (Right Leg)): 16.4 ng/mL
- concentration at 3 day ([1]; synovial fluid (right knee joint), 2 mg, Right leg (2 mg devices), Dog 3002, Day 3, read-out: Assayed Concentrations of Fluocinolone Acetonide in Dog Synovial Fluid Samples (Right Leg)): 40.7 ng/mL
- concentration at 29 day ([1]; synovial fluid (right knee joint), 2 mg, Right leg (2 mg devices), Dog 3002, Day 29, read-out: Assayed Concentrations of Fluocinolone Acetonide in Dog Synovial Fluid Samples (Right Leg)): 7.86 ng/mL
- Plasma levels [2]: 0 to 0.35 ng/mL
- increase in FA concentrations in the synovial fluid [3]: three-fold increase
